“Also recorded” adds a separate entry of the source.

Assay type in all cases: in vivo
For data set [1], the system named is swine exposed to 1.5 ATA hyperbaric oxygen for 17.5 hr. Nature of the data set: Experiment 1 shallow exposure simulation: pulmonary compliance. The settings on record: 1.5 ATA O2 17.5 hr; 18 mcg nebulized pre-dive; n=7; p=0.8364. On the procedure:
(§1) Experiment 1 is designed to evaluate the efficacy of tiotropium bromide administered pre-dive in reducing decrements in pulmonary function due to PO2T following a 17.5 hour, 1.5 ATA hyperbaric oxygen exposure. This dive profile was selected because it was of sufficient duration to elicit persistent pulmonary function decrement in humans.
(§2) The swine were anesthetized with propofol (20 cc, I.V. target, adjusted as needed to optimize sedation), intubated and ventilated. Anesthetized swine were shaved, then ECG and EEG electrodes were placed. Animals were then paralyzed with Atracurium Besylate (50 mg, IV) for accurate pulmonary function measurements of quasi-static and dynamic compliance.
Following baseline pulmonary function measurements, the swine were randomized to receive equivalent volumes of normal saline or tiotropium bromide (18 mcg) via nebulizer. The swine were then ventilated until muscle tone was regained. […]
Next, the swine were switched to 100% oxygen breathing gas and remained at 1.5 ATA for 17.5 hr. […] When fully sedated, the swine were ventilated, paralyzed with Atracurium Besylate, and post-dive measurements of pulmonary function were recorded. During all phases of study the swine were continuously monitored for signs of seizure or distress. […]

Data set [2] has as its system swine exposed to 2.5 ATA hyperbaric oxygen for 5.5 hr. Nature of the data set: Experiment 2 deep exposure simulation: Impulse Oscillometry (IOS). The conditions noted are these: 2.5 ATA O2 5.5 hr, post-dive normalized to baseline, n=6/arm. On the procedure: Experiment 2 is designed to evaluate the efficacy of tiotropium bromide pre-dive with respect to reducing decrements in pulmonary function due to PO2T following a 5.5 hour, 2.5 ATA hyperbaric oxygen exposure. This dive profile was selected because it caused the most significant pulmonary function deficits in humans with minimal risk of seizure due to CNS oxygen toxicity.
Hyperbaric Exposures: Individual animals were then placed into a Plexiglas box (30 in.×42 in.×38 in., manufactured in-house) within a Multiple Large Animal Chamber (MLAC), which is a steel-hulled hyperbaric chamber (450-cubic ft. floodable volume and pressure tested to 1,230 feet of seawater [fsw] equivalent) (Bethlehem Steel Corp, Bethlehem Pa.). Pressure/depth was monitored by a CPG 2500 Digital Pressure Gauge (Mensor Corp., San Marcos, Tex.). Swine were dove in pairs with each treatment group represented. Swine box assignment was alternated with respect to treatment to avoid any effects associated with individual box environmental features. Animals were monitored via closed-circuit television to observe signs of distress related to middle ear barotrauma (e.g. head shaking, nystagmus) and seizure activity. Oxygen concentration was measured and recorded using a portable O2 analyzer (Teledyne Analytical Inst, City of Industry, Calif.). […]

Data set [3] concerns swine exposed to 1.5 ATA hyperbaric oxygen for 17.5 hr. As to the kind of experiment: Experiment 1 shallow exposure simulation: pulmonary capacities. The settings on record: 1.5 ATA O2 17.5 hr, percent change from baseline. On the procedure:
as §1, §2
Following baseline pulmonary function measurements, the swine were randomized to receive equivalent volumes of normal saline or tiotropium bromide (18 mcg) via nebulizer. The swine were then ventilated until muscle tone was regained. Sedation was discontinued and the swine were extubated, transported to the hyperbaric chamber and allowed to recover until able to independently stand. Once able to stand, animals had electrode leads attached and IV tubing connected to the ear vein catheter. The chamber hatch was then closed and the swine compressed to 1.5 ATA on air.
(§3) Next, the swine were switched to 100% oxygen breathing gas and remained at 1.5 ATA for 17.5 hr. At the end of the 17.5 hour 1.5 ATA oxygen exposure, swine surfaced at a rate of 1 ATA/minutes (ATA/min), were transferred to a Panepinto sling, sedated with diazepam (1.5-2.0 mg/kg, I.V) and reassessed via impulse Oscillometry. The swine were again anesthetized with propofol and intubated. When fully sedated, the swine were ventilated, paralyzed with Atracurium Besylate, and post-dive measurements of pulmonary function were recorded. During all phases of study the swine were continuously monitored for signs of seizure or distress.
Baseline and post-dive assessments of pulmonary compliance were conducted on each animal enrolled in the study. […] These values were expressed as percent change from baseline.

For data set [4] the test system is unchanged. Nature of the data set: Experiment 1: adverse effects observation. The method, then:
as §3
Once measurements were complete, animals were then euthanized by intravenous infusion of euthanasia solution (Euthasol 1-1.5 ml/10 lbs. body weight) and transported to the necropsy suite for post-mortem sample collection.

Data set [5] relates to swine exposed to 2.5 ATA hyperbaric oxygen for 5.5 hr. Nature of the data set: Experiment 2: lung wet-dry ratio. The conditions noted are these: 2.5 ATA O2 5.5 hr; n=13; mean ± SEM; p=0.4566 vs saline. From the text:
Lungs were collected from the swine during necropsy. The right lung was collected for measurement of wet-dry ratios. The left lung was fixed via tracheal instillation at a standard pressure of 25 cmH2O with 10% neutral buffered formalin (NBF). The lungs were then sectioned into ten, one centimeter (cm) cranial to caudal serial sections. Three, 1 cm blocks were cut from each section and post-fixed in 10% NBF, trimmed, embedded in paraffin and cut into 5 μm sections for histological staining. Histology slides were de-paraffinized and stained with hematoxylin and eosin. A board-certified veterinary pathologist blinded to group randomization reviewed all gross necropsies, images, and histology slides.
All data were compiled into Excel spreadsheets then imported into Graphpad Prism 7.02 for statistical analysis. […] To allow for accurate data comparison between animals and/or groups the pressure volume curves were separated into inspiratory arms (0 to 40 cm H2O) and expiratory arms (40 to −40 cm H2O). Each arm was then fit using a non-linear regression utilizing a Gaussian distribution model. Volume data was then extrapolated from the curve corresponding to pressures from 0 to 40 cmH2O at 2.5 cm H2O increments. Statistical group-wise comparison of the extrapolated inspiratory and expiratory arms were conducted using repeated measures two-way ANOVA. […]

Consider `C[N+]1(C)[C@@H]2C[C@@H](OC(=O)C(O)(c3cccs3)c3cccs3)C[C@H]1[C@@H]1O[C@@H]12` [Tiotropium, tiotropium bromide], for which, in data set [1], the “pulmonary compliance, baseline vs post-dive” value is reported as “no significant changes”. Further, the “IOS resistance in saline treated controls when compared to Tiotropium treated swine” value in data set [2] (all frequencies, p=0.0421) is on record as “significant decrease in resistance”. For the same compound, the “IOS reactance in saline treated controls when compared to Tiotropium treated swine” value in data set [2] (p=0.0587) is “decrease in reactance which approached significance; also recorded: decrease in reactance, which approached significance”. The “Vital Capacity, Saline vs Tiotropium” value in data set [3] (p=0.394) is reported as “no significant differences”. For the same compound, the “Expiratory Reserve Volume, Saline vs Tiotropium” value in data set [3] (p=0.445) was “no significant differences”. For the same compound, the “Inspiratory capacity, Saline vs Tiotropium” value in data set [3] (p=0.879) is listed as “no significant differences”. In addition, the “adverse effect on outcome at any of the assessed endpoints” value in data set [4] (1.5 ATA O2 17.5 hr, 18 mcg nebulized pre-dive) is “no observable adverse effect”. Also, in data set [4] (1.5 ATA oxygen exposure), the “adverse reactions (including seizure)” value is “no adverse reactions”. For the same compound, the “Wet-Dry ratios of lung” value in data set [5] came out at 6.067±0.2305.

(Values after US20190290623A1, “USE OF TIOTROPIUM BROMIDE TO PREVENT PULMONARY OXYGEN TOXICITY” (priority 2018, published 2019).)
